Results from ChEMBL document CHEMBL5625199, “Discovery of triazole-bridged aryl adamantane analogs as an intriguing class of multifunctional agents for treatment of Alzheimer's disease” (Eur J Med Chem, 2023).
Activity calls are given as the source filed them. The rule behind the calls is not given here.

Assays:
[1] = Antagonist activity at NMDA receptor (unknown origin); parameters: species or system Homo sapiens
Cholinesterase = Cholinesterase (Equus caballus, UniProt P81908); assay: Inhibition of equine serum BuChE using butyrylthiocholine iodide as substrate preincubated with enzyme for 10 mins followed by substrate addition and measured every 1 min for 20 mins by spectrophotometric analysis
Cholinesterase, sequence (P81908 whole entry): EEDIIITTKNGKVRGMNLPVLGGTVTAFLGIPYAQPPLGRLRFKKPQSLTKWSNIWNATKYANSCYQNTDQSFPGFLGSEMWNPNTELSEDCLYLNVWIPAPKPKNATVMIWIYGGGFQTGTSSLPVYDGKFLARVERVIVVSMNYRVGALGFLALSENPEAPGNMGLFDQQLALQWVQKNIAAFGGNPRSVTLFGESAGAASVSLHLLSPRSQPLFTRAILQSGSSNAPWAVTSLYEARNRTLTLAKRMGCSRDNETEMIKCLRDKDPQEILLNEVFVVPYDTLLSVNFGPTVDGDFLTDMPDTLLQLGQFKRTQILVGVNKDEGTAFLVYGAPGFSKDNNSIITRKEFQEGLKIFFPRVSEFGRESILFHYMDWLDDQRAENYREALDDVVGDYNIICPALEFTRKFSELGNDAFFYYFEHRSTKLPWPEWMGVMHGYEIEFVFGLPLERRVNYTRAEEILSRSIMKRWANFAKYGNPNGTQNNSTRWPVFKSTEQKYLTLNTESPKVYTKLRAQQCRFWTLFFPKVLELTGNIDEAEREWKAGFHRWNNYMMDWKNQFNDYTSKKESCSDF

in vitro = conditions: PAMPA
Description: Permeability of the compound at 25 ug/ml incubated or 18 hrs by PAMPA-BBB assay

[2] = Antagonist activity at GluN1-1a/GluN2B (unknown origin) expressed in xenopus laevis oocytes assessed as inhibition of glycine/glutamate-induced channel current incubated for 20s measured at holding potential of -70 mV by two-electrode voltage clamp technique; assay type: cell-based, Homo sapiens; conditions: Oocyte
[3] = Selectivity index, ratio of IC50 for equine serum BuChE to IC50 for electric eel AChE
Acetylcholinesterase [4] = target: Acetylcholinesterase (Electrophorus electricus, UniProt O42275); assay: Inhibition of electric eel AChE using acetylthiocholine iodide as substrate preincubated with enzyme for 10 mins followed by substrate addition and measured every 1 min for 20 mins by spectrophotometric analysis
Acetylcholinesterase (Electrophorus electricus, UniProt O42275), sequence (O42275 whole entry): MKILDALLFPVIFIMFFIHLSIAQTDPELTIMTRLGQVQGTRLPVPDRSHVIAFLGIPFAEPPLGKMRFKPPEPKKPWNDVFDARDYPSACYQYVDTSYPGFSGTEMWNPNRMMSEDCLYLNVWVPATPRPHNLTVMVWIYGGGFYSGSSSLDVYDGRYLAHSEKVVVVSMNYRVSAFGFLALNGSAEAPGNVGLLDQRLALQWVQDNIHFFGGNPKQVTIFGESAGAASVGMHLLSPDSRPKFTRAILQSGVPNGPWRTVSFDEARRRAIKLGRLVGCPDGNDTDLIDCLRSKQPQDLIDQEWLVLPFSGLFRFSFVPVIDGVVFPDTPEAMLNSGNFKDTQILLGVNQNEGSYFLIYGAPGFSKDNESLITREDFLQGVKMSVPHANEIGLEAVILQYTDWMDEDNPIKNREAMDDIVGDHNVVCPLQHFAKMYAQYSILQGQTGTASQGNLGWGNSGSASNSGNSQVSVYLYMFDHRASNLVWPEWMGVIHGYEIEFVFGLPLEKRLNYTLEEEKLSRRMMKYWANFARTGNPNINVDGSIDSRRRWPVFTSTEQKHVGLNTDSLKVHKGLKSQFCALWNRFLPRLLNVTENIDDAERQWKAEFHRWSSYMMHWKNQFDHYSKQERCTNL

Acetylcholinesterase [5] = target: T1, Acetylcholinesterase (Homo sapiens, UniProt P22303); assay: Inhibition of human AChE
T1 sequence (P22303 whole entry): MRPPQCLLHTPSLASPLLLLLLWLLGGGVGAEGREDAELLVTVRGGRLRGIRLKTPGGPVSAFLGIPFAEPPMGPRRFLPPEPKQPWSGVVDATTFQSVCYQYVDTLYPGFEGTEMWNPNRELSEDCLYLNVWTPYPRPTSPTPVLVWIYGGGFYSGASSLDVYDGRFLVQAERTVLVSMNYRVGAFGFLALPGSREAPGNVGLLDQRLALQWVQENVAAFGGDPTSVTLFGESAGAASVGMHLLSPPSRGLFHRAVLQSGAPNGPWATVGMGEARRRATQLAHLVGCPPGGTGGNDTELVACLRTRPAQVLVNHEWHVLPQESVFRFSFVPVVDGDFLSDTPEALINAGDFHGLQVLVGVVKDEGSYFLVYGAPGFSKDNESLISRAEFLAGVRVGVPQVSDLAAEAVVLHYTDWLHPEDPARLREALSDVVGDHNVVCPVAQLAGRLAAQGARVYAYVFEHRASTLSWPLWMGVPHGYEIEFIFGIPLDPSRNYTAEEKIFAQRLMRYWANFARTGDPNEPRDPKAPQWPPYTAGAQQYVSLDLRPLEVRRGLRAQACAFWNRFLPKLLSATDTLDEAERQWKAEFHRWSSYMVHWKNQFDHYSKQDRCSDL

Rattus norvegicus [6] = assay: Antialzheimer activity against scopalamine-induced amnesia Wistar rat model assessed as inhibition of cognition impairment by measuring increase in spontaneous alterations at 5 mg/kg, po administered for 7 days and on day 7 administered with scopolamine at 30 mins before drug administration by Y-maze test; assay type: functional, organism-based; conditions: time 7.0 day
Rattus norvegicus [7] = assay: Antialzheimer activity against Abeta(1 to 42)-induced coginitive deficit Wistar rat model assessed as increase in total number of platform crossings at 5 mg/kg, po administered for 7 days by Morris water maze test; assay type: functional, organism-based; conditions: time 7.0 day
Rattus norvegicus [8] = assay: Antialzheimer activity against Abeta(1 to 42)-induced coginitive deficit Wistar rat model assessed as increase in time spent in the platform zone at 5 mg/kg, po administered for 7 days by Morris water maze test; assay type: functional, organism-based; conditions: time 7.0 day
Acetylcholinesterase [9] = target: T1, Acetylcholinesterase; assay: Inhibition of AChE (unknown origin)
Homo sapiens = species on record: Homo sapiens; assay: Antagonist activity at NMDA receptor (unknown origin) relative to control; conditions: filed as antagonist, concentration not given here
[10] = Antagonist activity at GluN1-1a/GluN2A (unknown origin) expressed in xenopus laevis oocytes assessed as inhibition of glycine/glutamate-induced channel current incubated for 20s measured at holding potential of -70 mV by two-electrode voltage clamp technique; assay type: cell-based; conditions: Homo sapiens, Oocyte
Rattus norvegicus [11] = assay: Antialzheimer activity against Abeta(1 to 42)-induced coginitive deficit Wistar rat model assessed as increase in time spent in the platform zone at 10 mg/kg, po administered for 7 days by Morris water maze test; assay type: functional, organism-based; conditions: time 7.0 day
Rattus norvegicus [12] = assay: Antialzheimer activity against Abeta(1 to 42)-induced coginitive deficit Wistar rat model assessed as increase in total number of platform crossings at 10 mg/kg, po administered for 7 days by Morris water maze test; assay type: functional, organism-based; conditions: time 7.0 day
[13] = Antagonist activity at GluN1-1b/GluN2D (unknown origin) expressed in xenopus laevis oocytes assessed as inhibition of glycine/glutamate-induced channel current incubated for 20s measured at holding potential of -70 mV by two-electrode voltage clamp technique; assay type: cell-based; conditions: Homo sapiens, Oocyte
Rattus norvegicus [14] = assay: Antialzheimer activity against scopalamine-induced amnesia Wistar rat model assessed as inhibition of cognition impairment by measuring increase in spontaneous alterations at 2.5 to 10 mg/kg, po administered for 7 days and on day 7 administered with scopolamine at 30 mins before drug administration by Y-maze test; assay type: functional, organism-based; conditions: dose 2.5-10 mg/kg, time 7.0 day
[15] = target: Amyloid-beta precursor protein (Homo sapiens) (UniProt P05067); assay: Inhibition of self-induced Amyloid beta (1 to 42 residues) (unknown origin) aggregation at Abeta(1 to 42) to compound concentration ratio of 10:5 to 10:20 uM incubated for 48 hrs by ThT fluorescence method
Amyloid-beta precursor protein (Homo sapiens), sequence (P05067 whole entry, the tested form may be a part): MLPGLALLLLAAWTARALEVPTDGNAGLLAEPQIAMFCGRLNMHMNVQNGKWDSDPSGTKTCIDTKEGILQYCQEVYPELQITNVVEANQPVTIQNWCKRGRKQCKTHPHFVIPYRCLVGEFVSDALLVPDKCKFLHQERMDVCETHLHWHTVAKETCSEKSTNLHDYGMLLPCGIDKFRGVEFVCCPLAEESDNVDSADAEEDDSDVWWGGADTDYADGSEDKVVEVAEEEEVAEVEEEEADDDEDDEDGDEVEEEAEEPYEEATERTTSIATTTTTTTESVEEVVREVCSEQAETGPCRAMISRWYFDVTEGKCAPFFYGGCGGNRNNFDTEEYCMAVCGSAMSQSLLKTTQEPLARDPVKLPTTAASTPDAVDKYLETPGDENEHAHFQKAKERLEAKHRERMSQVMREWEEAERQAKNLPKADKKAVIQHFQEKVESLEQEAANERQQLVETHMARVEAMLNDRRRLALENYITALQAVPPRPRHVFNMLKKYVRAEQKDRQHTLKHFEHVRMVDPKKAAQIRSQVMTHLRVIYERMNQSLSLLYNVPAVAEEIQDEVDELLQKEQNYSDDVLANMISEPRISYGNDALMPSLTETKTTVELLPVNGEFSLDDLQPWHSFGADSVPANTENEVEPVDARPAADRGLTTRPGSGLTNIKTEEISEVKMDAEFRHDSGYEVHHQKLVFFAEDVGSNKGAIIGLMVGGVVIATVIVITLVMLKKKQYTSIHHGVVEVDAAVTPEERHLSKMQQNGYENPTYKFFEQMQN

[16] = Antagonist activity at GluN1-1b/GluN2A (unknown origin) expressed in xenopus laevis oocytes assessed as inhibition of glycine/glutamate-induced channel current incubated for 20s measured at holding potential of -70 mV by two-electrode voltage clamp technique; assay type: cell-based; conditions: Homo sapiens, Oocyte
[17] = Antagonist activity at GluN1-1a/GluN2C (unknown origin) expressed in xenopus laevis oocytes assessed as inhibition of glycine/glutamate-induced channel current incubated for 20s measured at holding potential of -70 mV by two-electrode voltage clamp technique; assay type: cell-based; conditions: Homo sapiens, Oocyte
[18] = Antagonist activity at GluN1-1a/GluN2D (unknown origin) expressed in xenopus laevis oocytes assessed as inhibition of glycine/glutamate-induced channel current incubated for 20s measured at holding potential of -70 mV by two-electrode voltage clamp technique; assay type: cell-based; conditions: Homo sapiens, Oocyte
Rattus norvegicus [19] = assay: Antialzheimer activity against scopalamine-induced amnesia Wistar rat model assessed as inhibition of cognition impairment by measuring increase in spontaneous alterations at 10 mg/kg, po administered for 7 days and on day 7 administered with scopolamine at 30 mins before drug administration by Y-maze test; assay type: functional, organism-based; conditions: time 7.0 day
HEK-293T [20] = assay: Cytotoxicity against HEK293T cells assessed as reduction in cell viability at 100 uM measured after 44 hrs by WST-1 assay; assay type: toxicity, cell-based; conditions: human
[21] = Antagonist activity at GluN1-1b/GluN2C (unknown origin) expressed in xenopus laevis oocytes assessed as inhibition of glycine/glutamate-induced channel current incubated for 20s measured at holding potential of -70 mV by two-electrode voltage clamp technique; assay type: cell-based; conditions: Homo sapiens, Oocyte
[22] = target: Amyloid-beta precursor protein (Homo sapiens) (UniProt P05067); assay: Inhibition of AChE-induced Amyloid beta (1 to 42 residues) (unknown origin) aggregation at Abeta(1 to 42) to compound concentration ratio of 10:5 to 10:20 uM incubated for 48 hrs by ThT fluorescence method
HEK-293T [23] = assay: Cytotoxicity against HEK293T cells assessed as reduction in cell viability at 0.3 to 30 uM measured after 44 hrs by WST-1 assay; assay type: toxicity, cell-based; conditions: human, dose 0.3-30 µM
[24] = Antagonist activity at GluN1-1b/GluN2B (unknown origin) expressed in xenopus laevis oocytes assessed as inhibition of glycine/glutamate-induced channel current incubated for 20s measured at holding potential of -70 mV by two-electrode voltage clamp technique; assay type: cell-based; conditions: Homo sapiens, Oocyte
[25] = target: T2, Acetylcholinesterase (Rattus norvegicus) (UniProt P37136); assay: Ex vivo inhibition of AChE activity in brain of scopalamine-induced amnesia Wistar rat model at 10 mg/kg, po administered for 7 days and on day 7 administered with scopolamine at 30 mins before drug administration; assay type: functional, organism-based; conditions: time 7.0 day
T2 sequence (whole entry): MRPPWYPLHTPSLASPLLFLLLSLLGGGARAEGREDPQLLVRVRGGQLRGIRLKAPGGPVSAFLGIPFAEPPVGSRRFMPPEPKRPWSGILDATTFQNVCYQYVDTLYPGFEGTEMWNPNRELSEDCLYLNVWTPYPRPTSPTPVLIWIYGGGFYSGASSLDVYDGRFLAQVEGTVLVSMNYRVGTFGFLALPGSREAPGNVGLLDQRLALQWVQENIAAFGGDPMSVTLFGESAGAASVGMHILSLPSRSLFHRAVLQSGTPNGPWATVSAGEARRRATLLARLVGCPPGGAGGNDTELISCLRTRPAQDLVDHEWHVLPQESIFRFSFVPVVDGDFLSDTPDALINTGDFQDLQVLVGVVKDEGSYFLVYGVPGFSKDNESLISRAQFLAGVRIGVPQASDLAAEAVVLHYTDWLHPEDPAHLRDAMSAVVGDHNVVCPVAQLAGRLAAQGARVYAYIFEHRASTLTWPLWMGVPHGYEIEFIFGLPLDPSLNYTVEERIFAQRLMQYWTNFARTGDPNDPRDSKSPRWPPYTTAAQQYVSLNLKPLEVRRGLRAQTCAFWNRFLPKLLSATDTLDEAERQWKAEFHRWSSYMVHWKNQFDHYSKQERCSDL

SH-SY5Y = assay: Neuroprotective activity against human SH-SY5Y cells assessed as reduction of Abeta(1 to 42)-induced cytotoxicity upto 10 uM pretreated with Abeta42 for 24 hrs followed by incubation with compound for 72 hrs by MTT assay; assay type: functional, cell-based
[26] = target: T2, Acetylcholinesterase (Rattus norvegicus); assay: Ex vivo inhibition of AChE activity in brain of scopalamine-induced amnesia Wistar rat model at 2.5 to 10 mg/kg, po administered for 7 days and on day 7 administered with scopolamine at 30 mins before drug administration; assay type: functional, organism-based; conditions: dose 2.5-10 mg/kg, time 7.0 day

F[C@]12CC3C[C@](NCCCCCNc4c5c(nc6cc(Cl)ccc46)CCCC5)(C[C@H](C1)c1ccccc13)C2
IC50 [1]: 0.9 µM

Cc1ccc(Cn2cc(CNC34CC5CC(CC(C5)C3)C4)nn2)cc1
IC50 (Cholinesterase): 6.04 µM
Papp at 18 h, 25 ug/ml (in vitro): 7.48 ×10⁻⁶ cm/s
IC50 [2]: 197 µM
Ratio IC50 [3]: 17.8
IC50 (Acetylcholinesterase [4]): 0.34 µM

O=[N+]([O-])c1ccc(Cn2cc(CNC3CCCCCC3)nn2)cc1
IC50 (Cholinesterase): 19.2 µM
Papp at 18 h, 25 ug/ml (in vitro): 6.31 ×10⁻⁶ cm/s
IC50 [2]: 116 µM
Ratio IC50 [3]: 4.14
IC50 (Acetylcholinesterase [4]): 4.64 µM

c1ccc(CNC23OC4C5C6CC(C7C6C4C72)C53)cc1 (configuration not stated)
IC50 [1]: 2.98 µM

Cc1ccc(Cn2cc(CNC3CCCCCC3)nn2)cc1
IC50 (Cholinesterase): 19.3 µM
Papp at 18 h, 25 ug/ml (in vitro): 7.35 ×10⁻⁶ cm/s
IC50 [2]: 63.6 µM
Ratio IC50 [3]: 15.8
IC50 (Acetylcholinesterase [4]): 1.22 µM

Fc1ccc(Cn2cc(CNC3CCCCCC3)nn2)cc1
IC50 (Cholinesterase): 10.5 µM
Papp at 18 h, 25 ug/ml (in vitro): 8.42 ×10⁻⁶ cm/s
IC50 [2]: 97.3 µM
Ratio IC50 [3]: 5.75
IC50 (Acetylcholinesterase [4]): 1.82 µM

Clc1ccc(Cn2cc(CNC3CCCCCC3)nn2)cc1
IC50 (Cholinesterase): 16.5 µM
Papp at 18 h, 25 ug/ml (in vitro): 6.84 ×10⁻⁶ cm/s
IC50 (Acetylcholinesterase [5]): 0.927 µM
Ratio IC50 [3]: 27.1
IC50 (Acetylcholinesterase [4]): 0.607 µM

COc1cc2c(cc1OC)C(=O)C(CC1CCN(Cc3ccccc3)CC1)C2 (configuration not stated)
Activity (Rattus norvegicus [6]): Active
Activity (Rattus norvegicus [7]): Active
Activity (Rattus norvegicus [8]): Active

c1ccc(Cn2cc(CNC3CCCCCC3)nn2)cc1
IC50 (Cholinesterase): 11.4 µM
Papp at 18 h, 25 ug/ml (in vitro): 7.2 ×10⁻⁶ cm/s
Ratio IC50 [3]: 8.02
IC50 (Acetylcholinesterase [4]): 1.41 µM

COc1ccc2c(c1)c(=O)c1ccccc1n2Cc1cn(Cc2ccc(Cl)cc2)nn1
IC50 (Acetylcholinesterase [9]): 7.31 µM

Brc1ccc(Cn2cc(CNC3CCCCCC3)nn2)cc1
IC50 (Cholinesterase): 17.3 µM
Papp at 18 h, 25 ug/ml (in vitro): 6.72 ×10⁻⁶ cm/s
IC50 [2]: 38.2 µM
IC50 (Acetylcholinesterase [5]): 0.621 µM
Ratio IC50 [3]: 31.4
IC50 (Acetylcholinesterase [4]): 0.55 µM

O=[N+]([O-])c1ccc(Cn2cc(CNC34CC5CC(CC(C5)C3)C4)nn2)cc1
IC50 (Cholinesterase): 9.54 µM
Papp at 18 h, 25 ug/ml (in vitro): 6.83 ×10⁻⁶ cm/s
IC50 [2]: 21.8 µM
Ratio IC50 [3]: 5.93
IC50 (Acetylcholinesterase [4]): 1.61 µM

CC(C)c1ccc(Cn2cc(CNC34CC5CC(CC(C5)C3)C4)nn2)cc1
IC50 (Cholinesterase): 7.83 µM
Papp at 18 h, 25 ug/ml (in vitro): 7.63 ×10⁻⁶ cm/s
IC50 [2]: 79.5 µM
Ratio IC50 [3]: 9.79
IC50 (Acetylcholinesterase [4]): 0.799 µM

CC(C)c1ccc(Cn2cc(CNC3CCCCCC3)nn2)cc1
IC50 (Cholinesterase): 15.7 µM
Papp at 18 h, 25 ug/ml (in vitro): 7.24 ×10⁻⁶ cm/s
IC50 [2]: 217 µM
Ratio IC50 [3]: 10.3
IC50 (Acetylcholinesterase [4]): 1.52 µM

Fc1ccc(Cn2cc(CNC34CC5CC(CC(C5)C3)C4)nn2)cc1
IC50 (Cholinesterase): 3.27 µM
Papp at 18 h, 25 ug/ml (in vitro): 7.75 ×10⁻⁶ cm/s
Ratio IC50 [3]: 16.9
IC50 (Acetylcholinesterase [4]): 0.194 µM

Cc1ccc(-c2cn(Cc3ccc4ccccc4c3)nn2)cc1C(=O)NCCN1CCOCC1
IC50 (Acetylcholinesterase [9]): 7.23 µM

c1ccc(CCNC23CC4CC(CC(C4)C2)C3)cc1
inhibition (Homo sapiens): 89.5%

Clc1ccc(Cn2cc(CNC34CC5CC(CC(C5)C3)C4)nn2)cc1
IC50 (Cholinesterase): 3.8 µM
IC50 [10]: 129 µM
Activity (Rattus norvegicus [11]): Active
Activity (Rattus norvegicus [12]): Active
IC50 [13]: 239 µM
Activity (Rattus norvegicus [14]): Dose-Dependent Effect
inhibition [15]: Dose-Dependent Effect
Papp at 18 h, 25 ug/ml (in vitro): 8.24 ×10⁻⁶ cm/s
IC50 [16]: 142 µM
IC50 [17]: 143 µM
IC50 [18]: 789 µM
IC50 [2]: 5.05 µM
Activity (Rattus norvegicus [19]): Active
Activity (HEK-293T [20]): Toxic
IC50 [21]: 52.8 µM
inhibition [22]: Dose-Dependent Effect
IC50 (Acetylcholinesterase [5]): 0.133 µM
Activity (HEK-293T [23]): Non-Toxic
Ratio IC50 [3]: 28.1
IC50 [24]: 2.86 µM
inhibition [25]: Active
IC50 (Acetylcholinesterase [4]): 0.135 µM
Activity (SH-SY5Y): Active
inhibition [26]: Dose-Dependent Effect

COc1ccc2nc3c(c(NCCCCCNC(=S)N[C@]45CC6C[C@@H](C[C@@H](C6)C4)C5)c2c1)CCCC3
Ki [1]: 1.8 µM
IC50 (Acetylcholinesterase [5]): 0.47 µM

c1ccc(Cn2cc(CNC34CC5CC(CC(C5)C3)C4)nn2)cc1
IC50 (Cholinesterase): 4.72 µM
Papp at 18 h, 25 ug/ml (in vitro): 6.95 ×10⁻⁶ cm/s
Ratio IC50 [3]: 13.1
IC50 (Acetylcholinesterase [4]): 0.36 µM
